Patent US8729081B2, “Compositions and methods for treating alcohol use disorders, pain and other diseases” (VM Discovery Inc., priority 2008, dated 2014)

Legend:
[1] = molecular target: T1, PKCε (h) (Homo sapiens, UniProt Q02156); assay: In vitro PKCε kinase assay (radiometric, [γ-33P-ATP], HotSpot); assay type: biochemical; settings: recombinant human PKCε, 10 μM ATP; read-out: IC50 in antagonizing the PKCε
T1 construct: host or cells: insect cells
T1 sequence (Q02156 1-737): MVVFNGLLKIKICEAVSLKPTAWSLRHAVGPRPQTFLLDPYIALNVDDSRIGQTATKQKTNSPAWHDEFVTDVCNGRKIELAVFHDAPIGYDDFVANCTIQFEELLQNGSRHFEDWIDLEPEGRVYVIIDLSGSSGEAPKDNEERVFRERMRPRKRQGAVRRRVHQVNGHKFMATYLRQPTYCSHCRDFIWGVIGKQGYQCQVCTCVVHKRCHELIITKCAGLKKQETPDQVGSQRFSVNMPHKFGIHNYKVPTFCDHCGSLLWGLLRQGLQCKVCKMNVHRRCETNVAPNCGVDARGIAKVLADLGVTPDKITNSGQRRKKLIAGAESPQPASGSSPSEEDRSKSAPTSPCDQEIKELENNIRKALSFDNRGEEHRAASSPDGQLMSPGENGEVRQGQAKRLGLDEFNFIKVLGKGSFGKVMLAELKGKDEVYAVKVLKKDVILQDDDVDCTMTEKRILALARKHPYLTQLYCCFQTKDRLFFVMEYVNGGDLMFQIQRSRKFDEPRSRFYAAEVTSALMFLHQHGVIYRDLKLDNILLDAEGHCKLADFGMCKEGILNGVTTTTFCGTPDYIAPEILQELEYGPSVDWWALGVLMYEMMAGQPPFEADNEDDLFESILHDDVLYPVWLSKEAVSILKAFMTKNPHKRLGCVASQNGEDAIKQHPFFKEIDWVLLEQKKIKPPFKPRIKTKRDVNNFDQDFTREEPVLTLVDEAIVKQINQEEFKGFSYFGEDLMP
Method: There are many in vitro commercially available and validated bioassays (Ma, H., et al, Expert Opin Drug Discov. 2008 June; 3(6): 607-621 and references therein) which can be used to characterize the activities of compounds of the present invention against PKCε protein kinase. Compounds can be tested against the activity of recombinant PKCε. In a final reaction volume of 25 μL, PKCε (h) (0.4 nM, Human recombinant protein expressed in insect cells. Mw=83.7 kDa) is incubated with kinase buffer (20 mM HEPES-HCl, pH 7.5, 10 mM MgCl2, 1 mM EGTA, 0.02% Brij35, 0.1 mM Na3VO4, 0.02 mg/ml BSA, 2 mM DTT, and 1% DMSO), 0.1 mg/mL phosphatidylserine, 10 μg/mL diacylglycerol, 20 μM S25-PKC peptide substrate (RFARKGSLRQKNV-OH, Mw=1561 Da), 10 mM MgAcetate and 10 μM [γ-33P-ATP] (specific activity approx. 500 cpm/pmol). The reaction is initiated by the addition of the MgATP mix. After incubation for 40 minutes at room temperature, the reaction is stopped by the addition of 5 μL of a 3% phosphoric acid solution. 10 μL of the reaction is then spotted onto a P30 filtermat and washed three times for 5 minutes in 75 mM phosphoric acid and once in methanol prior to drying and scintillation counting Control samples are incubated without inhibitor to measure maximal activity or with the general kinase inhibitor Staurosporine (5 μM) to measure complete inhibition. For each compound the % inhibition can be calculated by the formula, or by curve fits: % Inhibition=(Max activity−Activity with compound)/(Max activity−Activity with Control)*100. Compounds with inhibitory activity are assayed using at least 5 concentrations (1 nM-300 μM). Concentrations are adjusted to generate a complete dose-response curve. Each sample is assayed in duplicate and each experiment is repeated three times. Results are fitted by non-linear regression analysis to a sigmoidal dose-response curve with variable slope to calculate Hill slope, log IC50 and Imax values for each inhibitor, using the program Prism 5 (GraphPad Software, Inc., San Diego, Calif.).
Kinase profiling was performed using HotSpot technology (Reaction Biology Corp. 11 Malvern, Pa., USA). This technology is a radioisotope-based P81 filter-binding assay. Compound of the present invention were dissolved in pure DMSO to make a 10 mM stock, then diluted in pure DMSO to make a serial dilution based on the IC50 ranges. PKCε (h) (0.4 nM, human recombinant protein expressed in insect cells. Mw=83.7 kDa) and substrate (20 μM peptide substrate, [RFARKGSLRQKNV]) were diluted in the reaction buffer (20 mM HEPES-HCl, pH 7.5, 10 mM MgCl2, 1 mM EGTA, 0.02% Brij35, 0.1 mM Na3VO4, 0.02 mg/ml BSA, 2 mM DTT, and 1% DMSO), and then 5 nL of compound was delivered into PKCε (h) and substrate mixture by acoustic technology using Echo 550 (LabCyte Inc., Sunnyvale, Calif.). The reaction was initiated by the addition of [γ-33P-ATP] into the reaction mixture (final concentration was 10 μM) and stopped after at least 40 min incubation at room temperature. The unreacted free 33P-ATP was washed away before detection.
The intrinsic PKCε antagonist activity of a compound which may be used in the present invention may be determined by these assays. […] Such a result is indicative of the intrinsic activity of the compounds in use as antagonists of PKCε.

[2] = system: C57BL/6J mice; assay: Alcohol intake in Drink-in-Dark (DID) model; assay type: in vivo; settings: 4-hr drinking in the dark (DID) protocol, compared with vehicle control, FIG. 2
Source text: FIG. 2. […] The data are presented as mean±SEM. *p<0.05, ***p<0.001 as compared with the vehicle control.
Alcohol Intake in Drink-in-Dark (DID) model (Rhodes J S, et al, Physiol Behav. (2005) 84:53-63). Mice are acclimated in animal facility and housed three to four per cage in standard cages until 1 week prior to the start of an experiment when they are transferred to individual housing. Approximately 2 weeks prior to the start of an experiment, the mice are switched to a reverse light/dark schedule such that lights turned on at 2030 h and off at 0830 h. Food (Purina 5001™) is always provided ad libitum. Water is provided ad libitum except when ethanol is substituted for water for 4 h per day. The animals are divided into 4 groups and given intraperitoneal (i.p.) injections of vehicle, and a test article (TA) at 5, 20 and 50 mg/kg body weight, respectively, starting 3 h after lights off in the animal rooms. Then the water bottles are replaced with 10 ml graduated cylinders fitted with sipper tubes containing 20% (v/v) ethanol in tap water. The ethanol cylinders remain in place for 4 h. The fluid levels are checked every 30 minutes for 4 h. After the 4-h period, the ethanol cylinders are replaced with water bottles. […] Similarly, mice are administered with TA by oral gavage and ethanol or water intake is monitored for 4 h.

O=C(NCCCN1CCCCCC1)c1ccc(C=C2Sc3ccccc3N(Cc3ccccc3F)C2=O)cc1 (mixture of isomers) [Compound 485, N-[3-(azepan-1-yl)propyl]-4-{(Z/E)-[4-(2-fluorobenzyl)-3-oxo-3,4-dihydro-2H-1,4-benzothiazin-2-ylidene]methyl}benzamide]
IC50 [1]: 10 to 1000 nM

O=C(NCCCN1CCCC1)c1ccc(C=C2Oc3ccccc3N(Cc3ccccc3C(F)(F)F)C2=O)cc1 (mixture of isomers) [Compound 801, 4-[(Z/E)-{3-oxo-4-[2-(trifluoromethyl)benzyl]-3,4-dihydro-2H-1,4-benzoxazin-2-ylidene}methyl]-N-[3-(pyrrolidin-1-yl)propyl]benzamide]
IC50 [1]: 10 to 1000 nM

O=C(NCN1CCC2CCCCC2C1)c1ccc(/C=C2\Oc3ccccc3N(Cc3ccccc3F)C2=O)cc1 (mixture of isomers) [Compound 817, 4-{(Z/E)-[4-(2-fluorobenzyl)-3-oxo-3,4-dihydro-2H-1,4-benzoxazin-2-ylidene]methyl}-N-(octahydroisoquinolin-2(1H)-ylmethyl)benzamide]
IC50 [1]: 10 to 1000 nM

CC(=C1Oc2ccccc2N(Cc2ccc(F)cc2)C1=O)c1ccc(C(=O)NCCCN2CCCCCC2)cc1 (mixture of isomers) [Compound 821, N-[3-(azepan-1-yl)propyl]-4-{(1Z/1E)-1-[4-(4-fluorobenzyl)-3-oxo-3,4-dihydro-2H-1,4-benzoxazin-2-ylidene]ethyl}benzamide]
IC50 [1]: 10 to 1000 nM

O=C(NCCCc1ccncc1)c1ccc(C=C2Sc3ccccc3N(Cc3ccccc3F)C2=O)cc1 (mixture of isomers) [Compound 825, 4-{(Z/E)-[4-(2-fluorobenzyl)-3-oxo-3,4-dihydro-2H-1,4-benzothiazin-2-ylidene]methyl}-N-[3-(pyridin-4-yl)propyl]benzamide]
IC50 [1]: 10 to 1000 nM

CC(=C1Oc2ccccc2N(Cc2ccc(F)cc2)C1=O)c1ccc(C(=O)NCCCN2CCOCC2)cc1 (mixture of isomers) [Compound 829, N-4-{(1Z/1E)-1-[4-(4-fluorobenzyl)-3-oxo-3,4-dihydro-2H-1,4-benzoxazin-2-ylidene]ethyl}-N-[3-(morpholin-4-yl)propyl]benzamide]
IC50 [1]: 10 to 1000 nM

CN(CCCN1CCOCC1)C(=O)c1ccc(C=C2Oc3ccccc3N(Cc3ccccc3F)C2=O)cc1 (mixture of isomers) [Compound 841, 4-{(Z/E)-[4-(2-fluorobenzyl)-3-oxo-3,4-dihydro-2H-1,4-benzoxazin-2-ylidene]methyl}-N-methyl-N-[3-(morpholin-4-yl)propyl]benzamide]
IC50 [1]: 10 to 1000 nM

O=C(NCCCN1CCCC1)c1ccc(/C=C2\Oc3ccccc3N(Cc3ccccc3F)C2=O)cc1 [Compound 483, 4-{(Z/E)-[4-(2-fluorobenzyl)-3-oxo-3,4-dihydro-2H-1,4-benzoxazin-2-ylidene]methyl}-N-[3-(pyrrolidin-1-yl)propyl]benzamide hydrate]
IC50 [1]: 10 to 1000 nM

Cc1oc(-c2ccc(Cl)cc2)nc1CN1CCC(C(=O)NCCN2CCCC2)CC1 [Compound 597, 1-{[2-(4-chlorophenyl)-5-methyl-1,3-oxazol-4-yl]methyl}-N-(2-pyrrolidin-1-ylethyl)piperidine-4-carboxamide]
IC50 [1]: 10 to 1000 nM

C/C(=C1/Oc2ccccc2N(Cc2ccc(F)cc2F)C1=O)c1ccc(C(=O)NCCCN2CCOCC2)cc1 [Compound 837, 4-{(1Z/1E)-1-[4-(2,4-difluorobenzyl)-3-oxo-3,4-dihydro-2H-1,4-benzoxazin-2-ylidene]ethyl}-N-[3-(morpholin-4-yl)propyl]benzamide]
IC50 [1]: 10 to 1000 nM

Cc1oc(-c2ccc(Cl)cc2)nc1CN1CCC(C(=O)NCCCN2CCCCCC2)CC1 [Compound 901, N-[3-(azepan-1-yl)propyl]-1-{[2-(4-chlorophenyl)-5-methyl-1,3-oxazol-4-yl]methyl}piperidine-4-carboxamide]
IC50 [1]: 10 to 1000 nM | oral intake of alcohol (20% ethanol) [2]: significantly reduced

Cc1oc(-c2ccc(Cl)cc2)nc1CN1CCC(C(=O)NCCCN2CCC(Cc3ccccc3)CC2)CC1 [Compound 907, N-[3-(4-benzylpiperidin-1-yl)propyl]-1-{[2-(4-chlorophenyl)-5-methyl-1,3-oxazol-4-yl]methyl}piperidine-4-carboxamide]
IC50 [1]: 10 to 1000 nM

Cc1oc(-c2cccc(Cl)c2)nc1CN1CCC(C(=O)NCCCN2CCC(Cc3cccc(Cl)c3)CC2)CC1 [Compound 911, N-{3-[4-(3-chlorobenzyl)piperidin-1-yl]propyl}-1-{[2-(3-chlorophenyl)-5-methyl-1,3-oxazol-4-yl]methyl}piperidine-4-carboxamide]
IC50 [1]: 10 to 1000 nM

Cc1oc(-c2ccc(Cl)cc2)nc1CN1CCC(C(=O)N(C)CCCN2CCCCCC2)CC1 [Compound 929, N-[3-(azepan-1-yl)propyl]-1-{[2-(4-chlorophenyl)-5-methyl-1,3-oxazol-4-yl]methyl}-N-methylpiperidine-4-carboxamide]
IC50 [1]: 10 to 1000 nM

Cc1oc(-c2ccc(Cl)cc2)nc1CN1CCC(C(=O)NCCCN2CCOCC2)CC1 [Compound 935, 1-{[2-(4-chlorophenyl)-5-methyl-1,3-oxazol-4-yl]methyl}-N-[3-(morpholin-4-yl)propyl]piperidine-4-carboxamide]
IC50 [1]: 10 to 1000 nM

Cc1oc(-c2ccc3c(c2)OCO3)nc1CN1CCC(C(=O)NCCCN2CCCCCC2)CC1 [Compound 949, N-[3-(azepan-1-yl)propyl]-1-{[2-(1,3-benzodioxol-5-yl)-5-methyl-1,3-oxazol-4-yl]methyl}piperidine-4-carboxamide]
IC50 [1]: 10 to 1000 nM
